Results as given in patent US20160340732A1, “COMPOSITIONS AND METHODS FOR DIAGNOSING AND TREATING NUCLEOTIDE REPEAT DISORDERS” (University of Virginia Patent Foundation, priority 2015, published 2016).

Legend:
miR-762 = miR-762 levels in cells exposed to HDAC inhibitors; assay type: cell-based; conditions: mouse C2C12 cells, TSA 50 nM vs DMSO, 48 hours (FIG. 7)
Experimental: Epigenetic drugs increasing expression of miR-15 family members levels or miR762 are anticipated to have therapeutic potential. Importantly, these drugs are generally safe, and could influence NRDs even with small changes in miR levels. No regulators of miR-762 have been published, so whether candidate drugs might alter miR-762 levels in vitro were assessed. Cells were exposed to vehicle, trichostatin A (TSA, an HDAC inhibitor and antifungal agent), and valproate (an epilepsy drug, mood stabilizer, and weaker HDAC inhibitor). TSA increased miR-762 levels 65-fold (FIG. 7).

NETO1 mRNA = NETO1 mRNA levels in astrocytes transfected with miR-762 mimic, inhibitor or scrambled miR; assay type: cell-based; conditions: non-diseased astrocytes transfected with 400 nM, vs scrambled miR (FIG. 15)
Source text: De novo introduction of the expanded repeat into naïve wild-type cells to induce NETO1 expression will be evaluated. […] NETO1 is not a predicted target of miR-762 by traditional in silico analysis (which relies on 3′ UTR analysis). However, a (C4G2)3 site 149 base pairs upstream of the NETO1 5′ UTR was identified that appeared significant both for its perfect replication of the C9 antisense expansion and its predicted tight pairing to miR-762 (RegRNA database: http://regrna.mbc.nctu.edu.tw/html/prediction.html). miR binding and regulation of transcripts in the 5′ region is poorly understood, but is known to occur. miR-762 may be able to bind and downregulate NETO1 transcript levels. To assess this, non-diseased astrocytes were transfected with 400 nM miR-762 mimic, miR-762 inhibitor, or scrambled miR. […] If NETO1 regulation is involved in FTLD-MND glutamate excitotoxicity, then targeting miR-762 regulation of the transcript could represent a possible therapeutic angle.

| Compound | increase of miR-762 levels (miR-762) | NETO1 mRNA level (NETO1 mRNA) |
| --- | --- | --- |
| CC(/C=C/C(=O)NO)=C\[C@@H](C)C(=O)c1ccc(N(C)C)cc1 [TSA, trichostatin A] | 65 fold |  |
| miR-762: miR-762 mimic transfected at 400 nM; miRNA sequence SEQ ID NO: 5 (Table 1) (CGAGCCGGGGCCGGGGUCGGGG; listed as RNA, chemistry not given here; listed as Homo sapiens) |  | reproducible and significant downregulation |
